Reference: ChEMBL document CHEMBL4311960, “Two optimized antimicrobial peptides with therapeutic potential for clinical antibiotic-resistant Staphylococcus aureus” (Eur J Med Chem, 2019)
In brackets after ≈: the same amount, converted by molar mass.

Legend:
Candida albicans = experiment: Antifungal activity against Candida albicans ATCC 5314 assessed as reduction in fungal growth incubated for 24 hrs by serial dilution method; assay type: functional; settings: ATCC 5314, 24 h
Staphylococcus aureus [1] = experiment: Antibacterial activity against methicillin-resistant Staphylococcus aureus ATCC 19494 assessed as reduction in bacterial growth incubated for 24 hrs by serial dilution method; assay type: functional; settings: ATCC 19494, 24 h
Staphylococcus aureus [2] = experiment: Antibacterial activity against Staphylococcus aureus ATCC 8325.4 assessed as reduction in bacterial growth incubated for 24 hrs by serial dilution method; assay type: functional; settings: ATCC 8325.4, 24 h
Staphylococcus aureus [3] = experiment: Antibacterial activity against Staphylococcus aureus ATCC 25923 assessed as reduction in bacterial growth incubated for 24 hrs by serial dilution method; assay type: functional; settings: ATCC 25923, 24 h, read-out: MIC
Staphylococcus aureus [4] = experiment: Antibacterial activity against Staphylococcus aureus ATCC 29213 assessed as reduction in bacterial growth incubated for 24 hrs by serial dilution method; assay type: functional; settings: ATCC 29213, 24 h
Staphylococcus aureus [5] = experiment: Antibacterial activity against Staphylococcus aureus ATCC 6538 assessed as reduction in bacterial growth incubated for 24 hrs by serial dilution method; assay type: functional; settings: ATCC 6538, 24 h
Staphylococcus aureus [6] = experiment: Antibacterial activity against methicillin-resistant Staphylococcus aureus ATCC 18466 assessed as reduction in bacterial growth incubated for 24 hrs by serial dilution method; assay type: functional; settings: ATCC 18466, 24 h
Staphylococcus aureus [7] = experiment: Antibacterial activity against methicillin-resistant Staphylococcus aureus ATCC 18475 assessed as reduction in bacterial growth incubated for 24 hrs by serial dilution method; assay type: functional; settings: ATCC 18475, 24 h
Staphylococcus aureus [8] = experiment: Antibacterial activity against methicillin-resistant Staphylococcus aureus ATCC 18567 assessed as reduction in bacterial growth incubated for 24 hrs by serial dilution method; assay type: functional; settings: ATCC 18567, 24 h
Staphylococcus aureus [9] = experiment: Antibacterial activity against methicillin-resistant Staphylococcus aureus ATCC 18858 assessed as reduction in bacterial growth incubated for 24 hrs by serial dilution method; assay type: functional; settings: ATCC 18858, 24 h
Staphylococcus aureus [10] = experiment: Antibacterial activity against methicillin-resistant Staphylococcus aureus ATCC 18878 assessed as reduction in bacterial growth incubated for 24 hrs by serial dilution method; assay type: functional; settings: ATCC 18878, 24 h
Staphylococcus aureus [11] = experiment: Antibacterial activity against methicillin-resistant Staphylococcus aureus ATCC 18908 assessed as reduction in bacterial growth incubated for 24 hrs by serial dilution method; assay type: functional; settings: ATCC 18908, 24 h
Staphylococcus aureus [12] = experiment: Antibacterial activity against methicillin-resistant Staphylococcus aureus ATCC 19041 assessed as reduction in bacterial growth incubated for 24 hrs by serial dilution method; assay type: functional; settings: ATCC 19041, 24 h
Staphylococcus aureus [13] = experiment: Antibacterial activity against methicillin-resistant Staphylococcus aureus ATCC 19047 assessed as reduction in bacterial growth incubated for 24 hrs by serial dilution method; assay type: functional; settings: ATCC 19047, 24 h
Staphylococcus aureus [14] = experiment: Antibacterial activity against methicillin-resistant Staphylococcus aureus ATCC 19498 assessed as reduction in bacterial growth incubated for 24 hrs by serial dilution method; assay type: functional; settings: ATCC 19498, 24 h
Staphylococcus aureus [15] = experiment: Antibacterial activity against methicillin-resistant Staphylococcus aureus ATCC 19167 assessed as reduction in bacterial growth incubated for 24 hrs by serial dilution method; assay type: functional; settings: ATCC 19167, 24 h
Staphylococcus aureus [16] = experiment: Antibacterial activity against methicillin-resistant Staphylococcus aureus ATCC 19900 assessed as reduction in bacterial growth incubated for 24 hrs by serial dilution method; assay type: functional; settings: ATCC 19900, 24 h
Staphylococcus aureus [17] = experiment: Antibacterial activity against methicillin-resistant Staphylococcus aureus ATCC 19916 assessed as reduction in bacterial growth incubated for 24 hrs by serial dilution method; assay type: functional; settings: ATCC 19916, 24 h
Staphylococcus aureus [18] = experiment: Antibacterial activity against methicillin-resistant Staphylococcus aureus ATCC 19423 assessed as reduction in bacterial growth incubated for 24 hrs by serial dilution method; assay type: functional; settings: ATCC 19423, 24 h
Staphylococcus aureus [19] = experiment: Antibacterial activity against methicillin-resistant Staphylococcus aureus ATCC 19102 assessed as reduction in bacterial growth incubated for 24 hrs by serial dilution method; assay type: functional; settings: ATCC 19102, 24 h
Staphylococcus aureus [20] = experiment: Antibacterial activity against methicillin-resistant Staphylococcus aureus ATCC 19952 assessed as reduction in bacterial growth incubated for 24 hrs by serial dilution method; assay type: functional; settings: ATCC 19952, 24 h
Staphylococcus aureus [21] = experiment: Antibacterial activity against Staphylococcus aureus ATCC 25923 assessed as reduction in bacterial growth at MIC measured after 15 passages; assay type: functional
Staphylococcus aureus [22] = experiment: Antibacterial activity against Staphylococcus aureus ATCC 29213 assessed as reduction in bacterial growth at MIC measured after 15 passages; assay type: functional
Staphylococcus aureus [23] = experiment: Ratio of MIC for resistant Staphylococcus aureus ATCC 25923 for 15 days to MIC for Staphylococcus aureus ATCC 25923 for 24 hrs; assay type: functional
Staphylococcus aureus [24] = experiment: Ratio of MIC for resistant Staphylococcus aureus ATCC 29213 for 15 days to MIC for Staphylococcus aureus ATCC 29213 for 24 hrs; assay type: functional
Streptococcus mutans = experiment: Antibacterial activity against Streptococcus mutans UA159 assessed as reduction in bacterial growth incubated for 24 hrs by serial dilution method; assay type: functional; settings: UA159, 24 h
Streptococcus sanguinis = experiment: Antibacterial activity against Streptococcus sanguinis ATCC 10556 assessed as reduction in bacterial growth incubated for 24 hrs by serial dilution method; assay type: functional; settings: ATCC 10556, 24 h
Erythrocyte = experiment: Hemolytic activity in mouse Erythrocyte assessed as HC10 incubated for 1 hr; assay type: ADME, cell-based
[25] = Hemolytic activity in mouse Erythrocyte assessed as HC50 incubated for 1 hr; assay type: ADME, cell-based; settings: mouse erythrocytes
[26] = Hemolytic activity in mouse Erythrocyte at 640 ug/ml incubated for 1 hr relative to control; assay type: ADME, cell-based; settings: mouse erythrocytes, read-out: %max
[27] = Cytotoxicity against human HEK293T cells assessed as cell viability at 5 to 640 ug/ml incubated for 48 hrs by MTT assay relative to control; assay type: cell-based, HEK-293T; settings: read-out: Activity
[28] = Cytotoxicity against human HEK293T cells assessed as cell viability at 640 ug/ml incubated for 48 hrs by MTT assay relative to control; assay type: cell-based, HEK-293T; settings: read-out: Activity

**Q.** Which MIC (Candida albicans; read-out: MIC) does the source give for Clc1ccc(COC(Cn2ccnc2)c2ccc(Cl)cc2Cl)cc1 (stereo not drawn) [ECONAZOLE] here?
**A.** 4 µg/mL (≈ 10.5 µM)

**Q.** What does the source list for COc1cccc(OC)c1C(=O)N[C@@H]1C(=O)N2[C@@H]1SC(C)(C)[C@@H]2C(=O)O [METHICILLIN]?
**A.** MIC (Staphylococcus aureus [1]): > 1200 µg/mL; MIC (Staphylococcus aureus [2]): 1 µg/mL (≈ 2.63 µM); MIC (Staphylococcus aureus [3]): 1 µg/mL (≈ 2.63 µM); MIC (Staphylococcus aureus [4]): 1 µg/mL (≈ 2.63 µM); MIC (Staphylococcus aureus [5]): 1 µg/mL (≈ 2.63 µM); MIC (Staphylococcus aureus [6]; read-out: MIC): > 1200 µg/mL; MIC (Staphylococcus aureus [7]): > 1200 µg/mL; MIC (Staphylococcus aureus [8]): > 1200 µg/mL; MIC (Staphylococcus aureus [9]): > 1200 µg/mL; MIC (Staphylococcus aureus [10]): > 1200 µg/mL; MIC (Staphylococcus aureus [11]): > 1200 µg/mL; MIC (Staphylococcus aureus [12]): > 1200 µg/mL; MIC (Staphylococcus aureus [13]): > 1200 µg/mL; MIC (Staphylococcus aureus [14]): > 1200 µg/mL; MIC (Staphylococcus aureus [15]): > 1200 µg/mL; MIC (Staphylococcus aureus [16]): > 1200 µg/mL; MIC (Staphylococcus aureus [17]): > 1200 µg/mL; MIC (Staphylococcus aureus [18]): > 1200 µg/mL; MIC (Staphylococcus aureus [19]): > 1200 µg/mL; MIC (Staphylococcus aureus [20]): > 1200 µg/mL; fold change (FC) (Staphylococcus aureus [21]): 8 - 16; fold change (FC) (Staphylococcus aureus [22]): 8 - 16; Ratio (Staphylococcus aureus [23]): 8 - 16; Ratio (Staphylococcus aureus [24]): 8 - 16

**Q.** What does the source list for Cc1onc(-c2ccccc2)c1C(=O)N[C@@H]1C(=O)N2[C@@H]1SC(C)(C)[C@@H]2C(=O)O [OXACILLIN]?
**A.** MIC (Staphylococcus aureus [1]): > 1200 µg/mL; MIC (Staphylococcus aureus [2]): 0.5 µg/mL (≈ 1.25 µM); MIC (Staphylococcus aureus [3]): 0.5 µg/mL (≈ 1.25 µM); MIC (Staphylococcus aureus [4]): 1 µg/mL (≈ 2.49 µM); MIC (Staphylococcus aureus [5]): 0.5 µg/mL (≈ 1.25 µM); MIC (Staphylococcus aureus [6]; read-out: MIC): > 1200 µg/mL; MIC (Staphylococcus aureus [7]): > 1200 µg/mL; MIC (Staphylococcus aureus [8]): > 1200 µg/mL; MIC (Staphylococcus aureus [9]): > 1200 µg/mL; MIC (Staphylococcus aureus [10]): > 1200 µg/mL; MIC (Staphylococcus aureus [11]): > 1200 µg/mL; MIC (Staphylococcus aureus [12]): > 1200 µg/mL; MIC (Staphylococcus aureus [13]): > 1200 µg/mL; MIC (Staphylococcus aureus [14]): > 1200 µg/mL; MIC (Staphylococcus aureus [15]): > 1200 µg/mL; MIC (Staphylococcus aureus [16]): > 1200 µg/mL; MIC (Staphylococcus aureus [17]): > 1200 µg/mL; MIC (Staphylococcus aureus [18]): > 1200 µg/mL; MIC (Staphylococcus aureus [19]): > 1200 µg/mL; MIC (Staphylococcus aureus [20]): > 1200 µg/mL; fold change (FC) (Staphylococcus aureus [21]): 8; fold change (FC) (Staphylococcus aureus [22]): 8; Ratio (Staphylococcus aureus [23]): 8; Ratio (Staphylococcus aureus [24]): 8

**Q.** Which results are given for CN[C@H](CC(C)C)C(=O)N[C@H]1C(=O)N[C@@H](CC(N)=O)C(=O)N[C@H]2C(=O)N[C@H]3C(=O)N[C@H](C(=O)N[C@H](C(=O)O)c4cc(O)cc(O)c4-c4cc3ccc4O)[C@H](O)c3ccc(c(Cl)c3)Oc3cc2cc(c3O[C@@H]2O[C@H](CO)[C@@H](O)[C@H](O)[C@H]2O[C@H]2C[C@](C)(N)[C@H](O)[C@H](C)O2)Oc2ccc(cc2Cl)[C@H]1O [VANCOMYCIN]?
**A.** MIC (Streptococcus mutans; read-out: MIC): 2 µg/mL (≈ 1.38 µM); MIC (Streptococcus sanguinis; read-out: MIC): 1 µg/mL (≈ 0.69 µM)

**Q.** Which MIC (Staphylococcus aureus [3]) does the source give for H-LYKRYILRKFKFLKKKLKKK-NH2 here?
**A.** < 64 µg/mL

**Q.** What about the MIC (Streptococcus mutans) of the same molecule?
**A.** > 64 µg/mL

**Q.** What about the MIC (Staphylococcus aureus [6]; read-out: MIC) of the same molecule?
**A.** 64 µg/mL

**Q.** What about the MIC (Candida albicans) of the same molecule?
**A.** > 64 µg/mL

**Q.** And the MIC (Streptococcus sanguinis)?
**A.** > 64 µg/mL

**Q.** What about the HC10 (Erythrocyte) of the same molecule?
**A.** > 640 µg/mL

**Q.** What about the HC50 at 1 h [25] of the same molecule?
**A.** > 640 µg/mL

**Q.** What about the hemolysis at 1 h, 640 ug/ml [26] of the same molecule?
**A.** 9.34%

**Q.** What about the viability at 48 h [27] of the same molecule?
**A.** 70 to 80%

**Q.** Which MIC (Staphylococcus aureus [3]) does the source give for H-SYEIKINRHFKTLKKNLKKK-NH2 here?
**A.** < 64 µg/mL

**Q.** And the MIC (Streptococcus mutans; read-out: MIC)?
**A.** < 64 µg/mL

**Q.** What about the MIC (Staphylococcus aureus [6]) of the same molecule?
**A.** > 64 µg/mL

**Q.** And the MIC (Candida albicans)?
**A.** > 64 µg/mL

**Q.** What about the MIC (Streptococcus sanguinis) of the same molecule?
**A.** > 64 µg/mL

**Q.** What about the HC10 (Erythrocyte) of the same molecule?
**A.** > 640 µg/mL

**Q.** And the HC50 at 1 h [25]?
**A.** > 640 µg/mL

**Q.** And the hemolysis at 1 h, 640 ug/ml [26]?
**A.** 6.78%

**Q.** What about the viability at 48 h [27] of the same molecule?
**A.** 70 to 80%

**Q.** For H-VWKRWVVRKWKWVKKKVKKK-NH2, which MIC (Staphylococcus aureus [3]) is on record?
**A.** < 64 µg/mL

**Q.** And the MIC (Streptococcus mutans; read-out: MIC)?
**A.** < 64 µg/mL

**Q.** What about the MIC (Staphylococcus aureus [6]; read-out: MIC) of the same molecule?
**A.** < 64 µg/mL

**Q.** And the MIC (Candida albicans; read-out: MIC)?
**A.** 64 µg/mL

**Q.** What about the MIC (Streptococcus sanguinis) of the same molecule?
**A.** > 64 µg/mL

**Q.** And the HC10 (Erythrocyte)?
**A.** 57.24 µg/mL

**Q.** And the HC50 at 1 h [25]?
**A.** > 640 µg/mL

**Q.** And the hemolysis at 1 h, 640 ug/ml [26]?
**A.** 31%

**Q.** What about the viability at 48 h, 640 ug/ml [28] of the same molecule?
**A.** 58.9%
